According to US9670204B2, “Compounds and pharmaceutical compositions thereof for the treatment of inflammatory disorders” (Galapagos NV, priority 2013, dated 2017):

How the values were obtained:
hENPP2 [1] = molecular target: T1, hENPP2 (UniProtKB/SwissProt Q13822) (Homo sapiens (Human), UniProt Q13822); assay: hENPP2 biochemical assay, LPC as substrate; details: LPC (palmitoyl 16:0) as substrate
Method in brief: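 Human ENPP2 in 50 mM Tris-HCl pH 8.5, 500 mM NaCl, 5 mM KCl, 10 mM CaCl2, 0.1% fatty-acid-free BSA, reacted 30 min at 37 °C with LPC 16:0 (150 µM solution added 1:1). Released choline measured via choline oxidase/peroxidase/TOOS/4-aminoantipyrine quinoneimine dye at 555 nm; IC50 reported.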

hENPP2 [2] = molecular target: T1, hENPP2; assay: fluorescent hENPP2 biochemical assay, FS-3 as substrate; details: read-out: FS3-IC50
Method in brief: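 hENPP2 in 50 mM Tris-HCl pH 8.0, 250 mM NaCl, 5 mM KCl, 1 mM MgCl2, 1 mM CaCl2, 0.1% fatty-acid-free BSA, preincubated with compound 30 min at room temperature. The 0.75 μM FS-3 solution was added and the mixture incubated 30 min at 30° C. Fluorescence (ex 485/em 520 nm) gives IC50.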

LPA 18:2 in rat plasma = assay: Rat whole blood (plasma) LPA assay; type: biochemical; details: 2 h at 37 C, LPA 18:2 by LC-MS/MS
Protocol: Whole blood is collected from rats or mouse by exsanguinations on sodium heparin tube, then after centrifugation at 3000 rpm for 15 min at 4° C., plasma is stored at −80° C. Compounds are diluted in DMSO in concentration dependent manner then 0.5 μL are dispensed into 96-well plate placed in ice. Plasma is defrosted on ice then 49.5 μL of plasma are added into the well containing 0.5 μL of compound (1% DMSO final). Plates are covered with a lid in polypropylene and incubated at +37° C., 5% CO2, for 2 h under gentle shaking (except controls which are stored at −20° C.).
At the end of the incubation, controls are defrosted in ice and transferred in the incubated plates for LC-MS/MS analysis with a non GLP-validated method. For the analysis, plasma proteins from a 10 μL incubated plates are precipitated with an excess of methanol containing the internal standard, LPA 17:0. After centrifugation, the corresponding supernatant is injected on a C18 column. Analytes are eluted out of the column under isocratic conditions. An API5500 QTRAP mass spectrometer (ABSciex™) is used for the detection of LPA 18:2. No calibration curve is prepared for LPA 18:2, however relative quantities are evaluated based on the peak area.

Row | Structure (SMILES) | IC50 (hENPP2 [1]) | IC50 (hENPP2 [2]) | IC50 (LPA 18:2 in rat plasma)
1 | CCc1nc2ccc(N3CCN(S(=O)(=O)CCCN(C)C)CC3)cn2c1N(C)c1nc(-c2ccc(F)cc2)cs1 [Compound 56, N-(6-(4-(3-(dimethylamino)propyl-sulfonyl)piperazin-1-yl)-2-ethylimidazo[1,2-a]pyridin-3-yl)-4-(4-fluorophenyl)-N-methylthiazol-2-amine] | 500 to 1000 nM | 0.01 to 100 nM | > 1000 nM
2 | CCc1nc2ccc(N3CCN(S(=O)(=O)CCCO)CC3)cn2c1N(C)c1nc(-c2ccc(F)cc2)cs1 [Compound 58, 3-(4-(2-ethyl-3-((4-(4-fluorophenyl)thiazol-2-yl)(methyl)amino)imidazo[1,2-a]pyridin-6-yl)piperazin-1-ylsulfonyl)propan-1-ol] | > 1000 nM | 0.01 to 100 nM | > 1000 nM
3 | CCc1nc2ccc(C3=CCN(S(C)(=O)=O)CC3)cn2c1N(C)c1nc(-c2ccc(F)cc2)cs1 [Compound 66, N-(2-ethyl-6-(1-(methylsulfonyl)-1,2,3,6-tetrahydropyridin-4-yl)imidazo[1,2-a]pyridin-3-yl)-4-(4-fluorophenyl)-N-methylthiazol-2-amine] | > 1000 nM | 0.01 to 100 nM | > 1000 nM
4 | CCc1nc2ccc(C3=CCN(S(=O)(=O)CCCO)CC3)cn2c1N(C)c1nc(-c2ccc(F)cc2)cs1 [Compound 75, 3-(4-(2-ethyl-3-((4-(4-fluorophenyl)thiazol-2-yl)(methyl)amino)imidazo[1,2-a]pyridin-6-yl)-5,6-dihydropyridin-1(2H)-ylsulfonyl)propan-1-ol] | 500 to 1000 nM | 0.01 to 100 nM | > 1000 nM
5 | CCc1nc2ccc(C3CCN(S(=O)(=O)CCCN(C)C)CC3)cn2c1N(C)c1nc(-c2ccc(F)cc2)cs1 [Compound 87, N-(6-(1-(3-(dimethylamino)propyl-sulfonyl)piperidin-4-yl)-2-ethylimidazo[1,2-a]pyridin-3-yl)-4-(4-fluorophenyl)-N-methylthiazol-2-amine] | 100 to 500 nM | 0.01 to 100 nM | 100 to 500 nM
6 | CCc1nc2ccc(C3CCN(S(=O)(=O)CCCN4CCOCC4)CC3)cn2c1N(C)c1nc(-c2ccc(F)cc2)cs1 [Compound 88, N-(2-ethyl-6-(1-(3-morpholinopropyl-sulfonyl)piperidin-4-yl)imidazo[1,2-a]pyridin-3-yl)-4-(4-fluorophenyl)-N-methylthiazol-2-amine] | 100 to 500 nM | 0.01 to 100 nM | 100 to 500 nM
7 | CCc1nc2ccc(C3CCN(S(=O)(=O)CCN4CCOCC4)CC3)cn2c1N(C)c1nc(-c2ccc(F)cc2)cs1 [Compound 91, N-(2-ethyl-6-(1-(2-morpholinoethylsulfonyl)piperidin-4 yl)imidazo[1,2-a]pyridin-3-yl)-4-(4-fluorophenyl)-N-methylthiazol-2-amine] | 500 to 1000 nM | 0.01 to 100 nM | > 1000 nM
8 | CCc1nc2ccc(C3CCN(S(=O)(=O)CCCO)CC3)cn2c1N(C)c1nc(-c2ccc(F)cc2)cs1 [Compound 94, 3-[4-(2-Ethyl-3-{[4-(4-fluoro-phenyl)-thiazol-2-yl]-methyl-amino}-imidazo[1,2-a]pyridin-6-yl)-piperidine-1-sulfonyl]-propan-1-ol] | 500 to 1000 nM | 0.01 to 100 nM | 500 to 1000 nM
9 | CCc1nc2ccc(C3CCN(S(=O)(=O)CCCO)CC3)cn2c1N(C)c1nc(-c2ccc(F)cc2)c(F)s1 [Compound 95, 3-[4-(2-Ethyl-3-{[5-fluoro-4-(4-fluoro-phenyl)-thiazol-2-yl]-methyl-amino}-imidazo[1,2-a]pyridin-6-yl)-piperidine-1-sulfonyl]-propan-1-ol] | > 1000 nM | 0.01 to 100 nM | 100 to 500 nM
10 | CCc1nc2ccc(C3CCN(S(C)(=O)=O)CC3)cn2c1N(C)c1nc(-c2ccc(F)cc2C#N)cs1 [Compound 96, 2-(2-((2-ethyl-6-(1-(methylsulfonyl)piperidin-4-yl)imidazo [1,2-a]pyridin-3-yl)(methyl)amino)thiazol-4-yl)-5-fluorobenzonitrile] | 100 to 500 nM | 0.01 to 100 nM | 0.01 to 100 nM
